Reference: PMC6399351, “Cationic Intrinsically Disordered Antimicrobial Peptides (CIDAMPs) Represent a New Paradigm of Innate Defense with a Potential for Novel Anti-Infectives” (Scientific Reports, 2019)
Values after ≈ are worked out from the molar mass of the structure shown. Like-named read-outs stand apart in the source and are kept apart here. Peptide text beside a SMILES is read from it. * marks the point of attachment. Palmitoyl = CCCCCCCCCCCCCCCC(=O)*

What was measured:
[1] = system: E. coli ATCC 11775; assay: CFU assay of antimicrobial activity; format: cell-based, Escherichia coli; conditions: 10 mM NaP
Procedure: (§1) All purified peptides and recombinant proteins were applied using a colony forming unit (CFU) assay in different media. Bacteria were grown to early log-phase in BHI, washed either with 10 mM Na-P, pH 7.4/1% TSB or pH 5.5/1% TSB, or pH 5.5 without TSB or BHI, and adjusted to a concentration of 10^4–10^5 colony forming units (CFU)/ml. For cell number control, 100 µl aliquots were diluted 1:10, 1:100 and 1:1000 and plated in duplicates on BHI agar plates. To 100 µl aliquots of the bacteria, suspended in the respective medium (10 mM Na-P buffer pH 7,0–7,4/ 1% (w/v) TSB; 10 mM Na-P buffer pH 5,5/ 1% (w/v) TSB; 10 mM Na-P buffer pH 7,0–7,4/ 1% (w/v) TSB pH 7,0–7,4/ 0,25% (w/v) glucose; 10 mM Na-P buffer pH 5,5/ 0,25% (w/v) glucose, respectively), 10 µl of a solution of the peptide or protein (two-fold dilutions, from 300 µg/ml or 150 µg/ml down to 19 ng/ml), dissolved in 0.01% (v/v) acetic acid, were added.
(§2) Then bacteria were incubated for 2 h at ambient temperature, if not otherwise stated. 10 µl of 0.01% (v/v) acetic acid, added to 100 µl aliquots of the bacteria in the respective medium, served as negative control. From each test, 1:10 and 1:100 dilutions were generated and plated as duplicates of 100 µl aliquots on BHI agar plates. After 16 h incubation at 37 °C, CFU were counted using a colony counter (Bio Kobe, Japan) and expressed as mean of the duplicate estimation to achieve a complete dose-response curve. All experiments were performed at serial dilutions in a concentration range of 100 µg/mL −25 ng/mL for recombinant HRNR fragments and 300 or 150 µg/mL–19 ng/mL for synthetic peptides.

[2] = system: Streptococcus pneumoniae ATCC 33400; assay: CFU assay of antimicrobial activity; format: cell-based; conditions: 10 mM NaP
Procedure: as §1, with “[…];” for “10 mM Na-P buffer pH 5,5/ 1% (w/v) TSB;”
as §2

[3] = system: Streptococcus pyogenes ATCC 12344; assay: CFU assay of antimicrobial activity; format: cell-based; conditions: 10 mM NaP
Procedure: as §1, with “[…];” for “10 mM Na-P buffer pH 5,5/ 1% (w/v) TSB;”
as §2

[4] = system: Salmonella typhimurium ATCC 13311; assay: CFU assay of antimicrobial activity; format: cell-based; conditions: 10 mM NaP
Procedure: as §1, §2

[5] = system: Staphylococcus epidermidis ATCC 14990; assay: CFU assay of antimicrobial activity; format: cell-based; conditions: 10 mM NaP
Procedure: as §1, §2

[6] = system: Acinetobacter baumannii ATCC 19606; assay: CO-ADD MIC, broth microdilution (CLSI); format: cell-based; conditions: Mueller–Hinton broth, 5 × 10^5 CFU/mL, 18 h 37 °C, by CO-ADD
Source text: (§3) They were defined as the lowest peptide
(§4) Further details of the screening

[7] = system: Pseudomonas aeruginosa ATCC 27853; assay: CO-ADD MIC, broth microdilution (CLSI); format: cell-based; conditions: Mueller–Hinton broth, 5 × 10^5 CFU/mL, 18 h 37 °C, by CO-ADD
Source text: as §3, §4

[8] = system: Candida albicans ATCC 90028; assay: CO-ADD MIC, antifungal assay (CLSI); format: cell-based; conditions: Yeast Nitrogen Base broth, 24 h 35 °C, by CO-ADD
Procedure: (§5) Fungi strains were cultured for 3 days on Yeast Extract-Peptone Dextrose (YPD) agar at 30 °C. A yeast suspension of 1 × 10^6 to 5 × 10^6 cells/mL (as determined by OD530) was prepared from five colonies. These stock suspensions were diluted with Yeast Nitrogen Base (YNB) broth to a final concentration of 2.5 × 10^3 CFU/mL. […] Plates were covered and incubated at 35 °C for 24 h without shaking.

[9] = system: Cryptococcus neoformans ATCC 208821; assay: CO-ADD MIC, antifungal assay (CLSI); format: cell-based; conditions: Yeast Nitrogen Base broth, 24 h 35 °C, by CO-ADD
Procedure: as §5

[10] = system: E. coli ATCC 25922; assay: CO-ADD MIC, broth microdilution (CLSI); format: cell-based, Escherichia coli; conditions: Mueller–Hinton broth, 5 × 10^5 CFU/mL, 18 h 37 °C, by CO-ADD
Source text: as §3, §4

[11] = system: P. aeruginosa ATCC 10145; conditions: CFU assay, 10 mM NaP
[12] = system: S. aureus ATCC 6538; conditions: CFU assay, 10 mM NaP
[13] = system: Burkholderia cepacia ATCC 25416; conditions: CFU assay, 10 mM NaP
[14] = system: Klebsiella pneumoniae ATCC 13883; conditions: CFU assay, 10 mM NaP
[15] = system: Klebsiella pneumonia ATCC 700603; conditions: MDR strain; CLSI, Mueller–Hinton broth, 5 × 10^5 CFU/mL, 18 h 37 °C, by CO-ADD
[16] = system: Staphylococcus aureus ATCC 43300; conditions: MRSA; CLSI, Mueller–Hinton broth, 5 × 10^5 CFU/mL, 18 h 37 °C, by CO-ADD
[17] = system: Prevotella oralis ATCC 33321; assay: CFU assay of antimicrobial activity; format: cell-based; conditions: 10 mM NaP
Procedure: as §1, with “[…],” for “10 mM Na-P buffer pH 5,5/ 0,25% (w/v) glucose,”
as §2

[18] = system: Propionibacterium acnes ATCC 6919; assay: CFU assay of antimicrobial activity; format: cell-based; conditions: 10 mM NaP
Procedure: as §1, §2

[19] = system: Clostridium perfringens ATCC 13124; conditions: CFU assay, 10 mM NaP

Row | SMILES | LD90 ([2]; pH 7.3, 0.25% glucose) | LD90 ([3]; pH 7.3, 0.25% glucose) | Minimal inhibitory concentration (MIC) [6] | Minimal inhibitory concentration (MIC) [7] | Minimal inhibitory concentration (MIC) [8] | Minimal inhibitory concentration (MIC) [9] | Minimal inhibitory concentration (MIC) [10] | LD90 ([12]; pH 5.5, 0.25% glucose) | LD90 ([13]; pH 7.3, 0.25% glucose) | LD90 ([14]; pH 5.5, 0.25% glucose) | Minimal inhibitory concentration (MIC) [15] | Minimal inhibitory concentration (MIC) [16] | LD90 ([17]; pH 7.3, 1% TSB) | LD90 ([18]; pH 7.3, 1% TSB) | LD90 ([12]; pH 7.3, 1% TSB) | LD90 ([19]; pH 7.3, 0.25% glucose) | also measured
1 | CCCCCCCCCCCCCCCC(=O)N[C@@H](CO)C(=O)N[C@@H](Cc1c[nH]cn1)C(=O)N[C@@H](Cc1c[nH]cn1)C(=O)N[C@@H](CCCNC(=N)N)C(=O)N[C@@H](CS)C(=O)N[C@@H](CS)C(=O)N[C@@H](CCCNC(=N)N)C(=O)N[C@@H](CO)C(=O)N[C@@H](Cc1c[nH]cn1)C(=O)N[C@@H](CCCNC(=N)N)C(=O)N[C@@H](CS)C(=O)N[C@@H](CCCNC(=N)N)C(=O)N[C@@H](CCCNC(=N)N)C(=O)O [Pal-LCE-3B56–68] (Palmitoyl-SHHRCCRSHRCRR-OH) | 0.59 µg/mL | 0.15 µg/mL | >32 µg/mL | >32 µg/mL | 1 µg/mL (≈ 0.517 µM) | 0.25 µg/mL (≈ 0.129 µM) | >32 µg/mL | <0.019 µg/mL | 4.7 µg/mL | 0.15 µg/mL | >32 µg/mL | 16 µg/mL (≈ 8.28 µM) |  |  |  |  | LD90 ([1]; pH 5.5, 0.25% glucose): 0.3 µg/mL; LD90 ([1]; pH 7.3, 0.25% glucose): 0.59 µg/mL; LD90 ([3]; pH 6.0, 0.25% glucose): 0.15 µg/mL; LD90 ([4]; pH 5.5, 0.25% glucose): 0.038 µg/mL; LD90 ([4]; pH 7.3, 0.25% glucose): 1.18 µg/mL; LD90 ([5]; pH 5.5, 0.25% glucose): 0.3 µg/mL; LD90 ([11]; pH 5.5, 0.25% glucose): 0.075 µg/mL; LD90 ([13]; pH 5.5, 0.25% glucose): >300 µg/mL; LD90 ([14]; pH 7.3, 0.25% glucose): 2.35 µg/mL
2 | CCCCCCCCCCCCCCCC(=O)NCC(=O)N[C@@H](CCCNC(=N)N)C(=O)N[C@@H](CCCNC(=N)N)C(=O)NCC(=O)N[C@@H](CO)C(=O)NCC(=O)N[C@@H](CC(C)C)C(=O)NCC(=O)N[C@@H](CCCNC(=N)N)C(=O)N[C@@H](CO)C(=O)N[C@@H](CO)C(=O)N[C@@H](CO)C(=O)N[C@@H](CCCNC(=N)N)C(=O)NCC(=O)N[C@@H](CCC(N)=O)C(=O)N[C@@H](CCCNC(=N)N)C(=O)NCC(=O)N[C@@H](CO)C(=O)NCC(=O)N[C@@H](CO)C(=O)NCC(=O)N[C@@H](CCCNC(=N)N)C(=O)O [Pal-HR 1-18-HR] (Palmitoyl-GRRGSGLGRSSSRGQRGSGSGR-OH) | 9.38 µg/mL | 0.15 µg/mL | 1 µg/mL (≈ 0.414 µM) | 16 µg/mL (≈ 6.63 µM) | >32 µg/mL | 1 µg/mL (≈ 0.414 µM) | 4 µg/mL (≈ 1.66 µM) | 0.3 µg/mL | 75 µg/mL |  | >32 µg/mL | 8 µg/mL (≈ 3.31 µM) | 37.5 µg/mL | 1.18 µg/mL | 1.18 µg/mL | 4.7 µg/mL | LD90 ([11]; pH 7.3, 1% TSB): 1.18 µg/mL; LD90 ([13]; pH 7.3, 1% TSB): 75 µg/mL
3 | CCCCCCCCCCCCCCCC(=O)NCC(=O)N[C@@H](CCCNC(=N)N)C(=O)N[C@@H](Cc1c[nH]cn1)C(=O)NCC(=O)N[C@@H](CO)C(=O)NCC(=O)N[C@@H](CC(C)C)C(=O)NCC(=O)N[C@@H](Cc1c[nH]cn1)C(=O)N[C@@H](CO)C(=O)N[C@@H](CO)C(=O)N[C@@H](CO)C(=O)N[C@@H](Cc1c[nH]cn1)C(=O)NCC(=O)N[C@@H](CCC(N)=O)C(=O)N[C@@H](Cc1c[nH]cn1)C(=O)NCC(=O)N[C@@H](CO)C(=O)NCC(=O)N[C@@H](CO)C(=O)NCC(=O)N[C@@H](CCCNC(=N)N)C(=O)O [Pal-HR 1-18] (Palmitoyl-GRHGSGLGHSSSHGQHGSGSGR-OH) | 2.35 µg/mL | 0.15 µg/mL | 32 µg/mL (≈ 13.7 µM) | >32 µg/mL | >32 µg/mL | >32 µg/mL | >32 µg/mL | 1.18 µg/mL | 75 µg/mL | 0.3 µg/mL | >32 µg/mL | >32 µg/mL | 18.75 µg/mL | 1.18 µg/mL | > 300 µg/mL | 4.7 µg/mL | LD90 ([2]; pH 7.3, 1% TSB): 9.38 µg/mL; LD90 ([3]; pH 7.3, 1% TSB): 9.38 µg/mL; LD90 ([17]; pH 6.5, 0.25% glucose): 37.5 µg/mL; LD90 ([18]; pH 5.5, 0.25% glucose): 0.3 µg/mL; LD90 ([18]; pH 7.3, 0.25% glucose): 0.59 µg/mL; LD90 ([5]; pH 7.3, 1% TSB): > 300 µg/mL; LD90 ([19]; pH 5.5, 0.25% glucose): 37.5 µg/mL; LD90 ([19]; pH 7.3, 1% TSB): 18.75 µg/mL
